Assay results taken from patent US4929612A, “Thiadiazolylacetamide cephem derivatives” (Eisai Co., Ltd., priority 1987, dated 1990).
Converted amounts (≈) assume the structure as drawn. Like-named read-outs stand apart in the source and are kept apart here.

Tests used:
[1] = test system: Pseud. aeruginosa EP-01; experiment: anti-bacterial activity, MIC, Pseud. aeruginosa EP-01; type: cell-based; conditions: Pseudomonas aeruginosa, EP01, inoculum size 10^6 CFU/ml
From the text: (§1) Test bacterium MIC (μg/ml) Inoculum size 10^6 CFU/ml

[2] = test system: Kleb. pneumoniae EK-6; experiment: anti-bacterial activity, MIC, Kleb. pneumoniae EK-6; type: cell-based; conditions: Klebsiella pneumoniae, EK6
From the text: as §1

[3] = test system: Ser. marcescens ES-75; experiment: anti-bacterial activity, MIC, Ser. marcescens ES-75; type: cell-based; conditions: Serratia marcescens, ES75
From the text: as §1

[4] = test system: Escher. coli NIHJ; experiment: anti-bacterial activity, MIC, Escher. coli NIHJ; type: cell-based; conditions: Escherichia coli, inoculum size 10^6 CFU/ml
From the text: as §1

[5] = test system: Staph. aureus 209-P; experiment: anti-bacterial activity, MIC, Staph. aureus 209-P; type: cell-based; conditions: Staphylococcus aureus, inoculum size 10^6 CFU/ml
From the text: as §1

[6] = test system: Morganella morganii EP-14; experiment: anti-bacterial activity, MIC, Morganella morganii EP-14; type: cell-based; conditions: EP14, inoculum size 10^6 CFU/ml
From the text: as §1

[7] = Acute toxicity, LD50 (mouse, intravenous injection); conditions: in vivo
From the text: Acute toxicity [LD50 (mouse, intravenous injection)] of the following compounds was more than 3 g/kg, respectively.

[8] = Kleb. pneumoniae EK-6, inoculum size 10^6 CFU/ml, read-out: MIC
[9] = Ser. marcescens ES-75, inoculum size 10^6 CFU/ml, read-out: MIC

Structure (SMILES)	MIC [1] [µg/mL]	MIC [2, 8] [µg/mL]	MIC [3, 9] [µg/mL]	MIC [4] [µg/mL]	MIC [5] [µg/mL]	MIC [6] [µg/mL]	MIC [3] [µg/mL]	MIC [2] [µg/mL]	LD50 [7] [mg/kg]
CC12CC[N+](CC3=C(C(=O)[O-])N4C(=O)[C@@H](NC(=O)/C(=N\OCF)c5nsc(N)n5)[C@H]4SC3)(CC1)CC2 [Example 2, 7β-[2-(5-Amino-1,2,4-thiadiazol-3-yl)-(Z)-2-fluoromethoxyiminoacetamido]-3-(4-methyl-1-quinuclidinio)methyl-3-cephem-4-carboxylate]	0.8 (≈ 1.48 µM)	0.05 (≈ 0.0927 µM)	–	0.05 (≈ 0.0927 µM)	0.8 (≈ 1.48 µM)	0.1 (≈ 0.185 µM)	0.1 (≈ 0.185 µM)	–	–
Nc1nc(/C(=N/OCF)C(=O)N[C@@H]2C(=O)N3C(C(=O)[O-])=C(C[N+]45CCC(O)(CC4)C5)CS[C@H]23)ns1 [Example 3, 7β-[2-(5-Amino-1,2,4-thiadiazol-3-yl)-(Z)-2-fluoromethoxyiminoacetamido]-3-(4-hydroxy-1,4-methylene-1-piperidinio)methyl-3-cephem-4-carboxylate]	0.8 (≈ 1.52 µM)	–	0.1 (≈ 0.19 µM)	0.05 (≈ 0.0948 µM)	0.4 (≈ 0.758 µM)	0.05 (≈ 0.0948 µM)	–	0.1 (≈ 0.19 µM)	> 3000
C[N+](C)(CCC(N)=O)CC1=C(C(=O)[O-])N2C(=O)[C@@H](NC(=O)/C(=N\OCF)c3nsc(N)n3)[C@H]2SC1 [Example 5, 7β-[2-(5-Amino-1,2,4-thiadiazol-3-yl)-(Z)-2-fluoromethoxyiminoacetamido]-3-[N,N-dimethyl-N-(2-carbamoyl)ethylammonio]methyl-3-cephem-4-carboxylate]	1.56 (≈ 2.94 µM)	≤ 0.025	–	≤ 0.025	1.56 (≈ 2.94 µM)	0.05 (≈ 0.0942 µM)	0.1 (≈ 0.188 µM)	–	–
Nc1nc(/C(=N/OCF)C(=O)N[C@@H]2C(=O)N3C(C(=O)[O-])=C(C[N+]45CCC(CO)(CC4)CC5)CS[C@H]23)ns1 [Example 11, 7β-[2-(5-Amino-1,2,4-thiadiazol-3-yl)-(Z)-2-fluoromethoxyiminoacetamido]-3-(4-hydroxylmethyl-1-quinuclidinio)methyl-3-cephem-4-carboxylate]	0.4 (≈ 0.72 µM)	≤ 0.025	0.1 (≈ 0.18 µM)	≤ 0.025	0.8 (≈ 1.44 µM)	≤ 0.025	–	–	> 3000
NC(=O)C12CC[N+](CC3=C(C(=O)[O-])N4C(=O)[C@@H](NC(=O)/C(=N\OCF)c5nsc(N)n5)[C@H]4SC3)(CC1)CC2 [Example 1, 7β-[2-(5-Amino-1,2,4-thiadiazol-3-yl)-(Z)-2-fluoromethoxyiminoacetamido]-3-(4-carbamoyl-1-quinuclidinio)methyl-3-cephem-4-carboxylate]	0.4 (≈ 0.703 µM)	0.05 (≈ 0.0879 µM)	0.1 (≈ 0.176 µM)	0.05 (≈ 0.0879 µM)	1.56 (≈ 2.74 µM)	0.05 (≈ 0.0879 µM)	–	–	> 3000

Continued, in another order:

MIC [1] [µg/mL]	MIC [2, 8] [µg/mL]	MIC [3, 9] [µg/mL]	MIC [4] [µg/mL]	MIC [5] [µg/mL]	MIC [6] [µg/mL]	Structure (SMILES)	MIC [3] [µg/mL]	MIC [2] [µg/mL]	LD50 [7] [mg/kg]
0.8 (≈ 1.52 µM)	0.05 (≈ 0.095 µM)	0.05 (≈ 0.095 µM)	0.05 (≈ 0.095 µM)	0.4 (≈ 0.76 µM)	0.05 (≈ 0.095 µM)	Nc1nc(/C(=N/OCF)C(=O)N[C@@H]2C(=O)N3C(C(=O)[O-])=C(C[n+]4cccn4CCO)CS[C@H]23)ns1 [Example 9, 7β-[2-(5-Amino-1,2,4-thiadiazol-3-yl)-(Z)-2-fluoromethoxyiminoacetamido]-3-[2-(2-hydroxyethyl)-1-pyrazolio]methyl-3-cephem-4-carboxylate]	–	–	–
0.8 (≈ 1.49 µM)	≤ 0.025	0.05 (≈ 0.0932 µM)	≤ 0.025	0.4 (≈ 0.745 µM)	0.05 (≈ 0.0932 µM)	Nc1nc(/C(=N/OCF)C(=O)N[C@@H]2C(=O)N3C(C(=O)[O-])=C(C[n+]4ccc5n4CCCC5)CS[C@H]23)ns1 [Example 10, 7β-[2-(5-Amino-1,2,4-thiadiazol-3-yl)-(Z)-2-fluoromethoxyiminoacetamido]-3-[1-(2,3-tetramethylene)pyrazolio]methyl-3-cephem-4-carboxylate]	–	–	–
0.8 (≈ 1.49 µM)	0.05 (≈ 0.0928 µM)	0.05 (≈ 0.0928 µM)	≤ 0.025	0.4 (≈ 0.743 µM)	0.05 (≈ 0.0928 µM)	Nc1nc(/C(=N/OCF)C(=O)N[C@@H]2C(=O)N3C(C(=O)[O-])=C(C[n+]4ccc5n4CCOC5)CS[C@H]23)ns1 [Example 8, 7β-[2-(5-Amino-1,2,4-thiadiazol-3-yl)-(Z)-2-fluoromethoxyiminoacetamido]-3-[1-morpholino-[4,3-b]pyrazolio]methyl-3-cephem-4-carboxylate]	–	–	–
3.13 (≈ 5.55 µM)	0.1 (≈ 0.177 µM)	0.4 (≈ 0.71 µM)	0.1 (≈ 0.177 µM)	6.25 (≈ 11.1 µM)	0.1 (≈ 0.177 µM)	Nc1nc(/C(=N/OCF)C(=O)N[C@@H]2C(=O)N3C(C(=O)[O-])=C(C[N+](CCO)(CCO)CCO)CS[C@H]23)ns1 [Example 7, 7β-[2-(5-Amino-1,2,4-thiadiazol-3-yl)-(Z)-2-fluoromethoxyiminoacetamido]-3-[tris(2-hydroxyethyl)ammonio]methyl-3-cephem-4-carboxylate]	–	–	–
0.8 (≈ 1.44 µM)	0.05 (≈ 0.0902 µM)	0.1 (≈ 0.18 µM)	0.05 (≈ 0.0902 µM)	1.56 (≈ 2.81 µM)	0.05 (≈ 0.0902 µM)	C[N+]1(CC2=C(C(=O)[O-])N3C(=O)[C@@H](NC(=O)/C(=N\OCF)c4nsc(N)n4)[C@H]3SC2)CC=C(C(N)=O)CC1 (stereo partly drawn) [Example 6, 7β-[2-(5-Amino-1,2,4-thiadiazol-3-yl)-(Z)-2-fluoromethoxyiminoacetamido]-3-(4-carbamoyl-1-methyl-1,2,3,6-tetrahydropyridinio)methyl-3-cephem-4-carboxylate]	–	–	–
0.8 (≈ 1.6 µM)	0.05 (≈ 0.1 µM)	0.05 (≈ 0.1 µM)	≤ 0.025	0.8 (≈ 1.6 µM)	≤ 0.025	C[N+]1(CC2=C(C(=O)[O-])N3C(=O)[C@@H](NC(=O)/C(=N\OCF)c4nsc(N)n4)[C@H]3SC2)CCCC1 [Example 4, 7β-[2-(5-Amino-1,2,4-thiadiazol-3-yl)-(Z)-2-fluoromethoxyiminoacetamido]-3-(1-methyl-1-pyrrolidinio)methyl-3-cephem-4-carboxylate]	–	–	–
